Here are results for 4 compounds from PMC6890495 (Chemical research in toxicology, 2019).

Experiment [1] addresses T1, recombinant human ALKBH2 protein (Homo sapiens, UniProt Q6NS38).
T1 sequence (Q6NS38 1-261): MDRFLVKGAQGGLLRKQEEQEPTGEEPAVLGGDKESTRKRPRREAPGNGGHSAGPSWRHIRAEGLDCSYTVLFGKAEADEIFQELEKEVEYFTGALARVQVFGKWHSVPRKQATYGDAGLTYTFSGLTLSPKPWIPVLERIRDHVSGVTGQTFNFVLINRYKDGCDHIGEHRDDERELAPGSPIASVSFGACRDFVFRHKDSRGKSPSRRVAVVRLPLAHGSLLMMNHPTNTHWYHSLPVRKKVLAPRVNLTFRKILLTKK
The experiment in a line: Fe. Type of experiment: biochemical. Particulars: for change of repair efficiency with increasing Fe(II) ion: rhein 50 μM.

For experiment [2], the target named is T1, recombinant human ALKBH2 protein. The experiment in a line: α-ketoglutarate competitor test: ALKBH2 repair with varying αKG and fixed Fe. Type of experiment: biochemical. As to conditions: for change of repair efficiency with increasing αKG: Fe(II) 10 μM, rhein 50 μM, compound 7 2 μM.

Consider `O=C(O)c1cc(O)c(O)c(O)c1` [compound 2, gallic acid], for which the “change of repair efficiency with increasing Fe(II) ion” value (shortened to “change … with increasing Fe(II) ion”) in experiment [1] (Fe(II) 5 to 80 μM, αKG 93 μM) was “recovered in a concentration-dependent manner”.

Take `O=C(OC[C@H]1O[C@@H](OC(=O)c2cc(O)c(O)c(O)c2)[C@H](OC(=O)c2cc(O)c(O)c(O)c2)[C@@H](OC(=O)c2cc(O)c(O)c(O)c2)[C@@H]1OC(=O)c1cc(O)c(O)c(O)c1)c1cc(O)c(O)c(O)c1` [compound 5, pentagalloyl glucose]: the “change … with increasing Fe(II) ion” value in experiment [1] (Fe(II) 5 to 80 μM, αKG 93 μM) is reported as “recovered in a concentration-dependent manner”.

On to `O=C(O)c1cc(O)c2c(c1)C(=O)c1cccc(O)c1C2=O` [rhein, Rhein, reference compound], for which, in experiment [1] (50 μM rhein, Fe(II) 5 to 80 μM, αKG fixed at 93 μM), the repair efficiency entry is “around 36%”. In experiment [1] (Fe(II) 5 to 80 μM, αKG 93 μM), the “change … with increasing Fe(II) ion” value was “no significant change”. In addition, in experiment [2] (50 μM rhein, 50 μM αKG, Fe(II) fixed at 10 μM), the repair ratio came out at 30%. Also, the “change of repair efficiency with increasing αKG” value in experiment [2] (αKG 50 to 800 μM) is “recovered in a concentration-dependent manner”.

As for tannic acid [compound 7], the “reactivity (repair)” value in experiment [1] (5 μM Fe(II) ion, αKG kept at 93 μM) is recorded as 5%. For the same compound, in experiment [1] (Fe(II) 5 to 80 μM, αKG 93 μM), the “change … with increasing Fe(II) ion” value is given as “restored in a concentration-dependent manner”. The repair efficiency entry in experiment [1] (Fe(II) ion concentration increased up to 80 μM, αKG 93 μM, control ~95% repair) is given as “up to 60%”; in experiment [2] (2 μM compound, αKG 50 to 800 μM, Fe(II) kept at 10 μM), ~ 25%. In experiment [2] (αKG 50 to 800 μM), the “change of repair efficiency with increasing αKG” value is “did not vary significantly”.
